{
  "source": "patent US11385220B2",
  "about": "“Methods for measuring oxidative stress in human body fluids” (CHUNGDO PHARM. CO., LTD, priority 2017, dated 2022)",
  "key": {"[1]": {"assay": "Crystallization of TBA-containing solution depending on amount of DMSO added (test paper, room temperature)", "format": "physicochemical", "settings": "test paper immersed in TBA solution, standing at room temperature, increasing amount of DMSO (FIG. 1)", "text": "FIG. 1 is an image showing crystallization of a solution containing TBA as a color indicator depending on the amount of DMSO added."}, "[2]": {"assay": "Solubility of TBA in solvent with or without DMSO", "format": "physicochemical", "experimental": "In the prior art (Korean Patent Laid-open No. 10-2013-0088623), the amount of TBA added was only 2 to 3%.\nIn the conventional published Patent No. 10-2013-0088623, the addition of 2 to 3 parts by weight of 1,3-diethyl-2-thiobarbituric acid (TBA) was determined to be an appropriate concentration with respect to 100 parts by weight of distilled water due to the solubility problem of TBA thereof. However, in the present invention, the solubility problem of TBA is solved by adding DMSO. By adding DMSO, 3.5 parts or more by weight of TBA can be dissolved in 100 parts by weight of distilled water or ethanol.\nIn the present example, DMSO (dimethyl sulfoxide) was added to the TBA solution. […] DMSO is an important solvent that dissolves both polar and nonpolar compounds, and can be used in combination with various organic solvents as well as water.\nIt was difficult to dissolve TBA in an amount of 3.5 parts by weight or more based on 100 parts by weight of the solvent in accordance with the method of the conventional art disclosed in published Patent No. 10-2013-0088623, and although dissolved, TBA was precipitated during the process."}},
  "data": [
    {"smiles": "CCN1C(=O)CC(=O)N(CC)C1=S", "note": "[TBA, 1,3-diethyl-2-thiobarbituric acid]", "values": [
      {"measurement": "TBA recrystallization", "setting": "[1]", "result": "TBA recrystallization decreased"},
      {"measurement": "TBA dissolved in distilled water", "setting": "[2]; distilled water, no DMSO", "result": "not dissolved in distilled water"},
      {"measurement": "TBA dissolved in ethanol", "setting": "[2]; ethanol, no DMSO", "result": "about 3.5%"},
      {"measurement": "amount of TBA that can be dissolved by the conventional method", "setting": "[2]; per 100 parts by weight of solvent, no DMSO (method of KR 10-2013-0088623), precipitated during the process", "result": "< 3.5", "unit": "parts by weight"}
    ]}
  ]
}
